Reference: article PMC9909341, “TLQP-21 is a low potency partial C3aR activator on human primary macrophages” (Frontiers in Immunology, 2023)
pEC50: −log10 of the molar value.

How the values were obtained:
C3aR-deficient BMDMs = experiment: phospho-ERK1/2 assay in C3aR-deficient BMDMs; type: cell-based, mouse; conditions: 10 min stimulation; n = 3 mice
Description: Mouse bone marrow-derived macrophages (BMDMs) were obtained and cultured as previously described ([20], [21]). All experiments using mice were approved by the University of Queensland animal ethics committee. Wild-type and C3aR^-/- mice on a C57BL/6J genetic background (n = 3) were sacrificed by cervical dislocation. The tibia was removed and sterilised. Upon removal of both epiphyses, bone marrow cells were harvested by flushing the central cavity with complete RPMI-1640 medium using a 10 ml syringe attached to a 25-gauge needle. Cells were then cultured in complete RPMI-1640 medium (containing 10 % FBS, 100 IU/ml penicillin, 100 μg/ml streptomycin) supplemented with 100 ng/ml recombinant human macrophage colony stimulating factor on 10 mm square dishes. […]
(§1) Ligand-induced ERK1/2 phosphorylation was assessed using the AlphaLISA Surefire Ultra p-ERK1/2 (Thr202/Tyr204) kit (PerkinElmer, Melbourne, Australia) following the manufacturer’s protocol as previously described ([18], [20], [22]). […] On a Tecan Spark 20M (Tecan, Männedorf, Switzerland), the plate was measured using standard AlphaLISA settings.
Figure 4 TLQP-21 triggers ERK signalling through C3aR in murine bone marrow-derive macrophages. […] The phospho-ERK1/2 content in the cell lysate was measured and normalised to the medium only-treated levels before being combined. […]

HMDMs = experiment: homologous desensitisation control in HMDMs; type: cell-based, human; conditions: pre-treatment 10 nM hC3a, 10 μM hTLQP-21 or mTLQP-21 for 30 min, then same ligand 10 min
Description: HMDMs were generated and cultured as previously described ([20]), with experiments approved by The University of Queensland Human Research Ethics Committee. Briefly, human buffy coat blood from anonymous healthy donors was obtained through the Australian Red Cross Blood Service (Brisbane, Australia). Human CD14+ monocytes were isolated from blood using Lymphoprep density centrifugation (STEMCELL, Melbourne, Australia) followed by CD14+ MACS magnetic bead separation (Miltenyi Biotec, Sydney, Australia). […]
as §1
Figure 3 Agonistic and antagonistic activities of hTLQP-21 and mTLQP-21 in human monocyte-derived macrophages. […] The phospho-ERK1/2 content in the cell lysate was measured and normalised to the maximum hC3a/hC5a-induced levels before being combined. […]

BMDM (murine C3aR) = type: cell-based, mouse
Description: Mouse bone marrow-derived macrophages (BMDMs) were obtained and cultured as previously described ([20], [21]). All experiments using mice were approved by the University of Queensland animal ethics committee. Wild-type and C3aR^-/- mice on a C57BL/6J genetic background (n = 3) were sacrificed by cervical dislocation. The tibia was removed and sterilised. Upon removal of both epiphyses, bone marrow cells were harvested by flushing the central cavity with complete RPMI-1640 medium using a 10 ml syringe attached to a 25-gauge needle. Cells were then cultured in complete RPMI-1640 medium (containing 10 % FBS, 100 IU/ml penicillin, 100 μg/ml streptomycin) supplemented with 100 ng/ml recombinant human macrophage colony stimulating factor on 10 mm square dishes. Mature adherent macrophages for assays were harvested on day 6-7 by gentle scraping.
Ligand-induced ERK1/2 phosphorylation was assessed using the AlphaLISA Surefire Ultra p-ERK1/2 (Thr202/Tyr204) kit (PerkinElmer, Melbourne, Australia) following the manufacturer’s protocol as previously described ([18], [20], [22]). Briefly, CHO-K1, CHO-C3aR, CHO-C5aR1, HMDMs (50,000/well) or BMDMs (90,000/well) were seeded in tissue culture-treated 96-well plates (Corning, Corning, USA) for 24 h and serum-starved overnight. All ligand dilutions were prepared in serum-free medium (SFM) containing 0.1% BSA. For inhibition assays, cells were pre-treated with the following ligands (5 µM SB290157, or respective concentrations of hC3a, mC3a, hC5a, hTLQP-21, and mTLQP-21) or the solvent-only control for 30 min before agonist (hC3a, hTLQP-21 and mTLQP-21) addition. The concentration and identity of the ligands are described in detail in the figure legends. For stimulation, cells were treated with ligands at the indicated concentrations for 10 min at RT and then immediately lysed using AlphaLISA lysis buffer on a microplate shaker (450 rpm, 10 min). For the detection of phospho-ERK1/2 content, cell lysate (5 μL/well) was transferred to a 384-well ProxiPlate (PerkinElmer, Melbourne, Australia) and added to the donor and acceptor reaction mix (2.5 μL/well, respectively), followed by a 2-h incubation at RT in the dark. On a Tecan Spark 20M (Tecan, Männedorf, Switzerland), the plate was measured using standard AlphaLISA settings.
All experiments were conducted in triplicates and repeated on three separate occasions unless otherwise specified. Data was analysed using GraphPad software (Prism 9.1). Data from each individual repeat was normalised accordingly (as specified in the figure legends) before being combined and expressed as mean ± standard error of the mean (S.E.M.) unless otherwise described. For all dose-response studies, logarithmic concentration-response curves were plotted using combined data and analysed to determine the respective potency values. Statistical analysis was performed using two-way ANOVA with Dunnett’s post hoc analysis. Donor-matched comparisons were made for HMDM experiments. Differences were deemed significant when p < 0.05.
Figure 4 TLQP-21 triggers ERK signalling through C3aR in murine bone marrow-derive macrophages. BMDMs (90,000/well) from wildtype mice (A) or with C3aR knockout mice (B), were serum-starved overnight and then stimulated with respective ligands at the indicated concentrations for 10 min. The phospho-ERK1/2 content in the cell lysate was measured and normalised to the medium only-treated levels before being combined. Data represent mean ± S.E.M. of triplicate measurements using cells from 3 mice (n = 3).

Substance | ERK signalling in C3aR-deficient BMDMs (C3aR-deficient BMDMs) | homologous desensitisation of ERK activity (HMDMs) | % C3a activity ± SE, BMDM (BMDM (murine C3aR); relative to mC3a, wild-type BMDMs) | logEC50 ± SE (pERK1/2), BMDM (BMDM (murine C3aR); wild-type BMDMs, 10 min stimulation at RT, C3a is recombinant mouse C3a) | pEC50 (BMDM (murine C3aR); wild-type C57BL/6J BMDMs, 90,000/well, 10 min stimulation at RT, AlphaLISA p-ERK1/2, n = 3 mice, C3a is recombinant mouse C3a, read-out: EC50 (pERK1/2), BMDM)
hC3a: purified (plasma-derived) human C3a, purchased from Merck | Neither hC3a, nor the TLQP-21 peptides caused any significant ERK signalling activity in C3aR-deficient cells | significantly dampened the subsequent ERK activity triggered by these ligands | – | – | –
C3a: Table 1 label: human C3a in CHO-C3aR and HMDM, recombinant mouse C3a in BMDM | – | – | 100 ± 4.1% | -8.1 ± 0.1 | 8.08
